Measured values reported in patent US20120277109A1, “PROXIMITY-MEDIATED ASSAYS FOR DETECTING ONCOGENIC FUSION PROTEINS” (Prometheus Laboratories Inc., priority 2009, published 2012).
Like-named read-outs stand apart in the source and are kept apart here.

Key:
[1] = system: patients with chronic myelogenous leukemia (CML); settings: cited from earlier work
[2] = system: BCR-ABL substrate CRKL; assay: Sandwich ELISA of total and activated (phosphorylated) CRKL in cancer cell lines after growth factor treatment; type: cell-based, human
[3] = 400 mg/day imatinib, after 7 years

Compound: Cc1cn(-c2cc(NC(=O)c3ccc(C)c(Nc4nccc(-c5cccnc5)n4)c3)cc(C(F)(F)F)c2)cn1 [nilotinib]
- toxicity ([1]; nilotinib compared with imatinib): more toxic than imatinib

Compound: heregulin
- CRKL activation (i.e., phosphorylation) upon treatment ([2]; MCF-7 cells): activated (i.e., phosphorylated) at low levels
- CRKL activation (i.e., phosphorylation) upon treatment ([2]; T47D cells): activated (i.e., phosphorylated) at low levels

Compound: Cc1ccc(NC(=O)c2ccc(CN3CCN(C)CC3)cc2)cc1Nc1nccc(-c2cccnc2)n1 [imatinib]
- complete cytogenetic response (CCyR) ([1]; 400 mg/day imatinib, % of patients): 70-80%
- even free survival rate [1, 3]: 81%
- overall survival rate [1, 3]: 90%
- relapse rate ([1]; 400 mg/day imatinib, in 5 years): about 30%
- loss of CCyR rate ([1]; 400 mg/day imatinib, in the first 3 years): 4 to 7 %/yr
- loss of CCyR rate ([1]; 400 mg/day imatinib, thereafter (after first 3 years)): 1 to 2 %/yr
- toxicity ([1]; 800 mg/day imatinib compared with 400 mg/day): more toxic
- CCyR ([1]; 800 mg/day imatinib): 95%
- relapse rate ([1]; 800 mg/day imatinib): 5%
- patients who do not achieve durable complete cytogenetic responses ([1]; first line therapy, newly diagnosed patients with CML): 20-25%

Compound: epidermal growth factor [EGF, stimulatory growth factor]
- CRKL activation (i.e., phosphorylation) upon treatment ([2]; A431 cells): activated
- CRKL activation (i.e., phosphorylation) upon treatment ([2]; T47D cells): not activated
